Where two headings read alike, the source gives them in different places.
How the values were obtained:
[1] = target: T1, METTL3-METTL14 (Homo sapiens, UniProt Q86U44); settings: for LLE (lipophilic ligand efficiency, pIC50-logP): calculated with DataWarrior; for LE (ligand efficiency): from TR-FRET IC50
Target sequence in this assay (Q9HCE5 whole entry): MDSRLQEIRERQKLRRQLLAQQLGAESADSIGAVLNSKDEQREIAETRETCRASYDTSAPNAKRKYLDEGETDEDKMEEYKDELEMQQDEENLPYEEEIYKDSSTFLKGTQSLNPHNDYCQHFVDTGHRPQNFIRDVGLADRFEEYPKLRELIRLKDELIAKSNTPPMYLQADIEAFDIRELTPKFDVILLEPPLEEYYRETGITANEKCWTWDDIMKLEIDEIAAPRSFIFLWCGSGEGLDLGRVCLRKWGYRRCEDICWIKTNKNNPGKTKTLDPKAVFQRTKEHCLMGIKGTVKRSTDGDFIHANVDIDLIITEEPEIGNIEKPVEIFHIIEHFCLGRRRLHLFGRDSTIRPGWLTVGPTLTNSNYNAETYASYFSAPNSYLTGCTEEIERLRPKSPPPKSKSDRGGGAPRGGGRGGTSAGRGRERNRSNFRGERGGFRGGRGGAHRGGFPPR
Target sequence in this assay (Q86U44 whole entry): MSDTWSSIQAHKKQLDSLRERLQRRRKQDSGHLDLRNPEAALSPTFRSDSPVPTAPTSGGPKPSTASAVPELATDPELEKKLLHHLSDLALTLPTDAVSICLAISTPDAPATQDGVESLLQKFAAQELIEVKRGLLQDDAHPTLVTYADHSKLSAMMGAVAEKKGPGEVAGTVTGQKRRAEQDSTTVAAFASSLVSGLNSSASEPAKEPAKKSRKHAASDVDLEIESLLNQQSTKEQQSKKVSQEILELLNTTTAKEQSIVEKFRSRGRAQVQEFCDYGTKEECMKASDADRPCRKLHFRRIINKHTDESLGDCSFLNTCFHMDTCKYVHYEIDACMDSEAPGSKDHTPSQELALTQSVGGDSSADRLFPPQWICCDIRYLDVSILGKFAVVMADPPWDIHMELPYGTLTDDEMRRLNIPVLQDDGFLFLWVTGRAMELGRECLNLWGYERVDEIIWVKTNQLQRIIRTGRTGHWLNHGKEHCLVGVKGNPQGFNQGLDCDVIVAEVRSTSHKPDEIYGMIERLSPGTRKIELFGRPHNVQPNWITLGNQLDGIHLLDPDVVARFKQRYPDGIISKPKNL

[2] = Rat liver microsomes
[3] = target: T1, METTL3-METTL14; assay: biochemical
Target sequence in this assay (Q9HCE5 whole entry): as the sequence (Q9HCE5 whole entry) above
Target sequence in this assay (Q86U44 whole entry): as the sequence (Q86U44 whole entry) above

[4] = target: T1, METTL3-METTL14; assay: Protein thermal shift assay, METTL3/METTL14; settings: read-out: ΔTm of METTL3/METTL14
Target sequence in this assay (Q86U44 whole entry): as above
Target sequence in this assay (Q9HCE5 whole entry partner): as the sequence (Q9HCE5 whole entry) above

[5] = tested on: m^6A/A ratio in polyadenylated RNA, MOLM-13 cells; assay: m6A/A ratio in polyadenylated RNA by UPLC-MS/MS, MOLM-13; settings: Homo sapiens, MOLM-13, 16 h, read-out: EC50 reduction of m^6A/A in polyadenylated RNA
[6] = read-out: IC50 for N6-adenosine-methyltransferase, exemplary PROTAC compounds, Table 9, HTRF, triplicates

Compound	LLE (lipophilic ligand efficiency, pIC50-logP) [1]	IC50 [1, 6] [nM]	other results
CNc1cc(N2CCCC(O)(CNC(=O)c3ccc(CN4CCC(C)(C)CC4)cc3)C2)ncn1 (stereo not shown) [Compound 1]	2.5	–	LE (ligand efficiency) [1]: 0.21 kcal.mol^−1 heavy atom count^−1
CNc1cc(N2CCC(O)(CNc3ccc(CN4CCC(C)(C)CC4)cc3)CC2)ncn1 [Compound 2]	2.5	–	IC50 ([1]; TR-FRET assay): 5000 nM
CNc1cc(N2CCC(O)(CNc3ccc(CN4CCC(C)(C)CC4)cn3)CC2)ncn1 [Compound 3]	3.2	–	IC50 ([1]; TR-FRET assay): 4600 nM
CNc1cc(N2CCC(O)(CNc3ccc(CN4CCC(C)(C)CC4)nc3)CC2)ncn1 [Compound 4]	3.4	–	IC50 ([1]; TR-FRET assay): 5800 nM
CC1(C)CCN(Cc2ccc(NCC3(O)CCN(c4cc(NCc5ccccc5)ncn4)CC3)cn2)CC1 [Compound 5]	–	–	IC50 ([1]; TR-FRET assay): 790 nM
CC1(C)CCN(Cc2ccc(C(=O)NC3CCN(c4cc(NCc5ccccc5)ncn4)CC3)cn2)CC1 [Compound 6]	1.7	–	LE (ligand efficiency) [1]: 0.20 kcal.mol^−1 heavy atom count^−1
CC1(C)CCN(Cc2ccc(N3CC(=O)NC4(CCN(c5cc(NCCCNC(=O)CCOCCOCCNc6cccc7c6C(=O)N(C6CCC(=O)NC6=O)C7=O)ncn5)CC4)C3)cc2)CC1 (stereo not shown) [Compound 8-4]	–	2470	–
CC1(C)CCN(Cc2ccc(N3CC(=O)NC4(CCN(c5cc(NCCCNC(=O)CCOCCOCCOCCNc6cccc7c6C(=O)N(C6CCC(=O)NC6=O)C7=O)ncn5)CC4)C3)cc2)CC1 (stereo not shown) [Compound 9-5]	–	1060	–
CNc1cc(N2CCC3(CC2)CN(c2ccc(CN4CCC(C)(C)CC4)cc2)CC(=O)N3)ncn1 [Compound 10, 4-(4-((4,4-dimethylpiperidin-1-yl)methyl)phenyl)-9-(6-(methylamino)pyrimidin-4-yl)-1,4,9-triazaspiro[5.5]undecan-2-one]	–	–	IC50 ([1]; TR-FRET assay): 89 nM
CC1(C)CCN(Cc2ccc(N3CC(=O)NC4(CCN(c5cc(NCCCNC(=O)CCOCCOCCOCCOCCNc6cccc7c6C(=O)N(C6CCC(=O)NC6=O)C7=O)ncn5)CC4)C3)cc2)CC1 (stereo not shown) [Compound 10-6]	–	590	–
CNc1cc(N2CC3(CN(c4ccc(CN5CCC(C)(C)CC5)cc4)CC(=O)N3)C2)ncn1 [Compound 11, 8-(4-((4,4-Dimethylpiperidin-1-yl)methyl)phenyl)-2-(6-(methylamino)pyrimidin-4-yl)-2,5,8-triazaspiro[3.5]nonan-6-one]	4.5	–	LE (ligand efficiency) [1]: 0.26 kcal.mol^−1 heavy atom count^−1; RLM t1/2 [2]: 70 min
CC1(C)CCN(Cc2ccc(N3CC(=O)NC4(CCN(c5cc(NCCCNC(=O)CCOCCOCCOCCOCCOCCNc6cccc7c6C(=O)N(C6CCC(=O)NC6=O)C7=O)ncn5)CC4)C3)cc2)CC1 (stereo not shown) [Compound 11-7]	–	640	–
CNc1cc(N2CCC3(CC2)CN(c2ccc(CN4CCC(C)(C)CC4)cc2)C(=O)N3)ncn1 [Compound 12]	2.6	–	LE (ligand efficiency) [1]: 0.23 kcal.mol^−1 heavy atom count^−1
CC1(C)CCN(Cc2ccc(N3CC(=O)NC4(CCN(c5cc(NCCCNC(=O)CCn6cc(CNc7cccc8c7C(=O)N(C7CCC(=O)NC7=O)C8=O)nn6)ncn5)CC4)C3)cc2)CC1 (stereo not shown) [Compound 13-11]	–	–	IC50 [3]: 1800 nM
CNc1cc(N2CCC3(CC2)CN(c2ccc(CN4CCC(C)(C)CC4)cc2)CC(=O)N3C)ncn1 [Compound 13]	3.0	–	IC50 ([1]; TR-FRET assay): 1500 nM; LE (ligand efficiency) [1]: 0.22 kcal.mol^−1 heavy atom count^−1
CC1(C)CCN(Cc2ccc(N3CC(=O)NC4(CCN(c5cc(NCCCNC(=O)CCCCCCCCNc6cccc7c6CN(C6CCC(=O)NC6=O)C7=O)ncn5)CC4)C3)cc2)CC1 (stereo not shown) [Compound 14-12]	–	260	–
CN(C)c1cc(N2CCC3(CC2)CN(c2ccc(CN4CCC(C)(C)CC4)cc2)CC(=O)N3)ncn1 [Compound 14]	3.2	–	LE (ligand efficiency) [1]: 0.23 kcal.mol^−1 heavy atom count^−1

Compound	LLE (lipophilic ligand efficiency, pIC50-logP) [1]	IC50 [1, 6] [nM]	other results
CC(C)Nc1cc(N2CCC3(CC2)CN(c2ccc(CN4CCC(C)(C)CC4)cc2)CC(=O)N3)ncn1 [Compound 15, 4-(4-((4,4-Dimethylpiperidin-1-yl)methyl)phenyl)-9-(6-(isopropylamino)pyrimidin-4-yl)-1,4,9-triazaspiro[5.5]undecan-2-one]	3.2	–	LE (ligand efficiency) [1]: 0.24 kcal.mol^−1 heavy atom count^−1
CC1(C)CCN(Cc2ccc(N3CC(=O)NC4(CCN(c5cc(NCCCNC(=O)CNc6cccc7c6CN(C6CCC(=O)NC6=O)C7=O)ncn5)CC4)C3)cc2)CC1 (stereo not shown) [Compound 15-13]	–	–	IC50 [3]: 520 nM
CC1(C)CCN(Cc2ccc(N3CC(=O)NC4(CCN(c5ccnc6[nH]ccc56)CC4)C3)cc2)CC1 [Compound 18]	2.3	–	LE (ligand efficiency) [1]: 0.20 kcal.mol^−1 heavy atom count^−1
CC1(C)CCN(Cc2ccc(N3CC(=O)NC4(CCN(c5nc(Cl)nc6[nH]ccc56)CC4)C3)cc2)CC1 [Compound 19, 9-(2-Chloro-7H-pyrrolo[2,3-d]pyrimidin-4-yl)-4-(4-((4,4-dimethylpiperidin-1-yl)methyl)phenyl)-1,4,9-triazaspiro[5.5]undecan-2-one]	3.9	–	RLM t1/2 [2]: 32 min
CNc1cc(N2CCC3(CC2)CN(c2cc(F)c(CN4CCC(C)(C)CC4)cc2F)CC(=O)N3)ncn1 [Compound 22, 4-(4-((4,4-Dimethylpiperidin-1-yl)methyl)-2,5-difluorophenyl)-9-(6-(methylamino)pyrimidin-4-yl)-1,4,9-triazaspiro[5.5]undecan-2-one]	–	–	ΔTm at 100 µM [4]: 4.7 °C; EC50 [5]: 700 nM
CC1(C)CCN(Cc2cc(F)c(N3CC(=O)NC4(CCN(c5cc(NCC6CCN(C(=O)CCCCCCCCN7CCN(c8cccc9c8C(=O)N(C8CCC(=O)NC8=O)C9=O)CC7)CC6)ncn5)CC4)C3)cc2F)CC1 (stereo not shown) [Compound 49-1]	–	–	IC50 [3]: 5 nM
CC1(C)CCN(Cc2cc(F)c(N3CC(=O)NC4(CCN(c5cc(NCc6cccc(CNC(=O)CCCCCCCCNc7cccc8c7CN(C7CCC(=O)NC7=O)C8=O)c6)ncn5)CC4)C3)cc2F)CC1 (stereo not shown) [Compound 50-1]	–	67	–
CC1(C)CCN(Cc2cc(F)c(N3CC(=O)NC4(CCN(c5cc(NCc6cccc(CNC(=O)CCCCCCCCCCNc7cccc8c7CN(C7CCC(=O)NC7=O)C8=O)c6)ncn5)CC4)C3)cc2F)CC1 (stereo not shown) [Compound 51-1]	–	160	–
CC1(C)CCN(Cc2cc(F)c(N3CC(=O)NC4(CCN(c5cc(NCc6cccc(CNC(=O)CCCCCCCCn7cc(CNc8cccc9c8C(=O)N(C8CCC(=O)NC8=O)C9=O)nn7)c6)ncn5)CC4)C3)cc2F)CC1 (stereo not shown) [Compound 52-1]	–	88	–
CC1(C)CCN(Cc2cc(F)c(N3CC(=O)NC4(CCN(c5cc(NCc6cccc(CNC(=O)CCn7cc(CNc8cccc9c8C(=O)N(C8CCC(=O)NC8=O)C9=O)nn7)c6)ncn5)CC4)C3)cc2F)CC1 (stereo not shown) [Compound 53-1]	–	–	IC50 [3]: 200 nM
CC1(C)CCN(Cc2ccc(N3CC(=O)NC4(CCN(c5cc(NCCCNC(=O)CCCCCCCCCCCCCCNc6cccc7c6CN(C6CCC(=O)NC6=O)C7=O)ncn5)CC4)C3)cc2)CC1 (stereo not shown) [Compound 54-1]	–	1220	–
CC1(C)CCN(Cc2cc(F)c(N3CC(=O)NC4(CCN(c5cc(NCCCNC(=O)CCCCCCCCNc6cccc7c6CN(C6CCC(=O)NC6=O)C7=O)ncn5)CC4)C3)cc2F)CC1 (stereo not shown) [Compound 55-1]	–	66	–
CC1(C)CCN(Cc2cc(F)c(N3CC(=O)NC4(CCN(c5cc(NCCCNC(=O)CCCCCCCCCCNc6cccc7c6CN(C6CCC(=O)NC6=O)C7=O)ncn5)CC4)C3)cc2F)CC1 (stereo not shown) [Compound 56-1]	–	300	–
CC1(C)CCN(Cc2ccc(N3CC(=O)NC4(CCN(c5cc(NCCCNC(=O)CCCCCCCCn6cc(CNc7cccc8c7C(=O)N(C7CCC(=O)NC7=O)C8=O)nn6)ncn5)CC4)C3)cc2)CC1 (stereo not shown) [Compound 57-1]	–	–	IC50 [3]: 480 nM
CC1(C)CCN(Cc2cc(F)c(N3CC(=O)NC4(CCN(c5cc(NCCCNC(=O)CCCCCCCCn6cc(CNc7cccc8c7C(=O)N(C7CCC(=O)NC7=O)C8=O)nn6)ncn5)CC4)C3)cc2F)CC1 (stereo not shown) [Compound 58-1]	–	67	–
CC1(C)CCN(Cc2cc(F)c(N3CC(=O)NC4(CCN(c5cc(NCCCNC(=O)CCCCCCCCCCn6cc(CNc7cccc8c7C(=O)N(C7CCC(=O)NC7=O)C8=O)nn6)ncn5)CC4)C3)cc2F)CC1 (stereo not shown) [Compound 59-1]	–	220	–
Nc1ncnc2c1ncn2[C@@H]1O[C@H](CSCC[C@H](N)C(=O)O)[C@@H](O)[C@H]1O [SAH, S-adenosyl-L-homocysteine, reference compound]	–	–	ΔTm at 100 µM [4]: 2.8 °C

Source: patent publication US20260263606A1 (priority 2022, published 2026)
